# Experimental data: patent US20240228555A9, “ANTIMICROBIAL PEPTIDOMIMETICS” (Basilea Pharmaceutica International AG, Allschwil, priority 2020, published 2024)
# Where a SMILES comes first, the peptide text is derived from it.
# Assays:
# [1] = tested on: Escherichia coli ATCC 25922; conditions: ATCC 25922
# Outline: (§1)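 Activity is measured against peptides serially diluted two-fold in water with 0.002% final Polysorbate 80. The cells are in cation-adjusted MHII broth at roughly 5×10^5 CFU/mL, prepared from a 0.5 McFarland suspension in 0.85% NaCl.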
# [2] = tested on: Escherichia coli MCR-1 Af 45; conditions: Mueller-Hinton broth II, no visible growth after 18-20 hours at 35° C.
# Outline: as §1
# [3] = tested on: Klebsiella pneumoniae SSI3010; conditions: SSI3010
# Outline: as §1
# [4] = tested on: human red blood cells (hRBC); format: cell-based; conditions: red cells of human, 1 h, 0.2 g/L
# Outline: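 PBS-washed human erythrocytes (20% v/v) were incubated with compounds at 200 μg/mL for 1 h at 37° C with shaking. Supernatant OD540 was read after 8-fold dilution; hemolysis % = OD540 peptide / OD540 of the 100% lysis control (2.5% Triton X-100 in H2O) ×100, with PBS as 0%.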
SMILES,Escherichia coli ATCC 25922 MIC [1],Escherichia coli MCR-1 Af 45 MIC [2],Klebsiella pneumoniae SSI3010 MIC [3],Hemolysis at 0.2 g/L [4]
"CC[C@H](C)[C@H](NC(=O)[C@@H](NC(=O)[C@@H]1C[C@@H](O)CN1C(=O)[C@@H](N)C(C)C)[C@@H](C)CC)C(=O)N[C@@H](Cc1ccc(O)cc1)C(=O)N[C@@H]1C(=O)N[C@@H](CC(N)=O)C(=O)N[C@@H](CCCNC(=N)N)C(=O)N[C@@H](CCN)C(=O)N[C@@H](CO)C(=O)N[C@H](CCN)C(=O)N[C@@H]([C@@H](C)CC)C(=O)N[C@H](C(=O)N[C@@H](CCN)C(=O)N[C@@H](CCCNC(=N)N)C(=O)N[C@@H](Cc2ccc(O)cc2)C(=O)O)CSSC1(C)C [Example 118, Val-Hyp-Ile-Ile-Tyr-Pen-Asn-Arg-Dab-Ser-^DDab-Ile-Cys-Dab-Arg-Tyr] (HELM PEPTIDE1{V.[Hyp].I.I.Y.[Pen].N.R.[Dab].S.[NCC[C@@H](N[*:1])C(=O)[*:2]].I.C.[Dab].R.Y}$PEPTIDE1,PEPTIDE1,6:R3-13:R3$$$V2.0)",0.25 µg/mL,0.25 µg/mL,0.25 µg/mL,<1%
"CC[C@H](C)[C@H](NC(=O)[C@@H](NC(=O)[C@@H]1C[C@@H](O)CN1C(=O)[C@@H](N)C(C)C)[C@@H](C)CC)C(=O)N[C@@H](Cc1ccc(O)cc1)C(=O)N[C@@H]1C(=O)N[C@@H](CC(N)=O)C(=O)N[C@@H](CCCNC(=N)N)C(=O)N[C@@H](CCN)C(=O)N[C@@H](CO)C(=O)N[C@H](CCN)C(=O)N[C@@H]([C@@H](C)CC)C(=O)N[C@H](C(=O)N[C@@H](CCN)C(=O)N[C@@H](CCN)C(=O)N[C@@H](Cc2ccc(O)cc2)C(=O)O)CSSC1(C)C [Example 84, Val-Hyp-Ile-Ile-Tyr-Pen-Asn-Arg-Dab-Ser-^DDab-Ile-Cys-Dab-Dab-Tyr] (HELM PEPTIDE1{V.[Hyp].I.I.Y.[Pen].N.R.[Dab].S.[NCC[C@@H](N[*:1])C(=O)[*:2]].I.C.[Dab].[Dab].Y}$PEPTIDE1,PEPTIDE1,6:R3-13:R3$$$V2.0)",0.25 µg/mL,0.25 µg/mL,0.5 µg/mL,<1%
"CC[C@H](C)[C@H](NC(=O)[C@@H]1C[C@@H](F)CN1C(=O)[C@@H](N)C(C)C)C(=O)N[C@H](C(=O)N[C@@H](Cc1ccc(O)cc1)C(=O)N[C@@H]1C(=O)N[C@@H](CC(N)=O)C(=O)N[C@@H](CCCNC(=N)N)C(=O)N[C@@H](CCN)C(=O)N[C@@H]([C@@H](C)O)C(=O)N[C@H](CCN)C(=O)N[C@@H](CCCCN)C(=O)N[C@H](C(=O)N[C@@H](CCN)C(=O)N[C@@H](CCCNC(=N)N)C(=O)N[C@@H](Cc2ccc(O)cc2)C(=O)O)CSSC1(C)C)[C@@H](C)O [Example 131, Val-Pro((4R)F)-Ile-Thr-Tyr-Pen-Asn-Arg-Dab-Thr-^DDab-Lys-Cys-Dab-Arg-Tyr] (HELM PEPTIDE1{V.[O=C([C@@H]1C[C@@H](F)CN1[*:1])[*:2]].I.T.Y.[Pen].N.R.[Dab].T.[NCC[C@@H](N[*:1])C(=O)[*:2]].K.C.[Dab].R.Y}$PEPTIDE1,PEPTIDE1,6:R3-13:R3$$$V2.0)",0.25 µg/mL,0.125 µg/mL,0.5 µg/mL,<1%
"CC[C@H](C)[C@@H]1NC(=O)[C@@H](NC(=O)[C@H](Cc2ccc(O)cc2)NC(=O)[C@@H](NC(=O)[C@@H](NC(=O)[C@@H]2C[C@@H](O)CN2C(=O)[C@@H](N)C(C)C)[C@@H](C)CC)[C@@H](C)O)C(C)(C)SSC[C@@H](C(=O)N[C@@H](CCN)C(=O)N[C@@H](CCCNC(C)C)C(=O)N[C@@H](Cc2ccc(O)cc2)C(=O)O)NC(=O)[C@H](CCCCN)NC(=O)[C@@H](CCN)NC(=O)[C@H]([C@@H](C)O)NC(=O)[C@H](CCN)NC(=O)[C@H](CCCNC(=N)N)NC1=O [Example 137, Hyp-Ile-Thr-Tyr-Pen-Ile-Arg-Dab-Thr-^DDab-Lys-Cys-Dab-Orn(iPr)-Tyr] (HELM PEPTIDE1{V.[Hyp].I.T.Y.[Pen].I.R.[Dab].T.[NCC[C@@H](N[*:1])C(=O)[*:2]].K.C.[Dab].[CC(C)NCCC[C@H](N[*:1])C(=O)[*:2]].Y}$PEPTIDE1,PEPTIDE1,6:R3-13:R3$$$V2.0)",0.125 µg/mL,0.125 µg/mL,0.25 µg/mL,<1%
"CC[C@H](C)[C@@H]1NC(=O)[C@@H](NC(=O)[C@H](Cc2ccc(O)cc2)NC(=O)[C@@H](NC(=O)[C@@H](NC(=O)[C@@H]2C[C@@H](O)CN2C(=O)[C@@H](N)C(C)C)[C@@H](C)CC)[C@@H](C)O)C(C)(C)SSC[C@@H](C(=O)N[C@@H](CO)C(=O)N[C@@H](CCCN)C(=O)N[C@@H](Cc2ccc(O)cc2)C(=O)O)NC(=O)[C@H](CCCCN)NC(=O)[C@@H](CCN)NC(=O)[C@H]([C@@H](C)O)NC(=O)[C@H](CCN)NC(=O)[C@H](CCCNC(=N)N)NC1=O [Example 92, Val-Hyp-Ile-Thr-Tyr-Pen-Ile-Arg-Dab-Thr-^DDab-Lys-Cys-Ser-Orn-Tyr] (HELM PEPTIDE1{V.[Hyp].I.T.Y.[Pen].I.R.[Dab].T.[NCC[C@@H](N[*:1])C(=O)[*:2]].K.C.S.[Orn].Y}$PEPTIDE1,PEPTIDE1,6:R3-13:R3$$$V2.0)",0.25 µg/mL,0.125 µg/mL,0.5 µg/mL,<1%
"CC[C@H](C)[C@@H]1NC(=O)[C@@H](NC(=O)[C@H](Cc2ccc(O)cc2)NC(=O)[C@@H](NC(=O)[C@@H](NC(=O)[C@@H]2C[C@@H](O)CN2C(=O)[C@@H](N)C(C)C)[C@@H](C)CC)[C@@H](C)O)C(C)(C)SSC[C@@H](C(=O)N[C@@H](CCN)C(=O)N[C@@H](CCCNC(=N)N)C(=O)N[C@@H](Cc2ccc(O)cc2)C(=O)O)NC(=O)[C@H](CCCN)NC(=O)[C@@H](CCN)NC(=O)[C@H]([C@@H](C)O)NC(=O)[C@H](CCN)NC(=O)[C@H](CCCNC(=N)N)NC1=O [Example 123, Val-Hyp-Ile-Thr-Tyr-Pen-Ile-Arg-Dab-Thr-^DDab-Orn-Cys-Dab-Arg-Tyr] (HELM PEPTIDE1{V.[Hyp].I.T.Y.[Pen].I.R.[Dab].T.[NCC[C@@H](N[*:1])C(=O)[*:2]].[Orn].C.[Dab].R.Y}$PEPTIDE1,PEPTIDE1,6:R3-13:R3$$$V2.0)",0.0625 µg/mL,0.125 µg/mL,0.125 µg/mL,<1%
"CC[C@H](C)[C@H](NC(=O)[C@@H](NC(=O)[C@@H]1C[C@@H](O)CN1C(=O)[C@@H](N)C(C)C)[C@@H](C)CC)C(=O)N[C@@H](Cc1ccc(O)cc1)C(=O)N[C@@H]1C(=O)N[C@@H](CC(N)=O)C(=O)N[C@@H](CCCNC(=N)N)C(=O)N[C@@H](CCN)C(=O)N[C@@H]([C@@H](C)O)C(=O)N[C@H](CCN)C(=O)N[C@@H](CCCCN)C(=O)N[C@H](C(=O)N[C@@H](CCN)C(=O)N[C@@H](CCCNC(N)=O)C(=O)N[C@@H](Cc2ccc(O)cc2)C(=O)O)CSSC1(C)C [Example 73, Val-Hyp-Ile-Ile-Tyr-Pen-Asn-Arg-Dab-Thr-^DDab-Lys-Cys-Dab-Cit-Tyr] (HELM PEPTIDE1{V.[Hyp].I.I.Y.[Pen].N.R.[Dab].T.[NCC[C@@H](N[*:1])C(=O)[*:2]].K.C.[Dab].[Cit].Y}$PEPTIDE1,PEPTIDE1,6:R3-13:R3$$$V2.0)",0.5 µg/mL,0.25 µg/mL,0.5 µg/mL,<1%
"CC[C@H](C)[C@H](NC(=O)[C@@H](NC(=O)[C@@H]1C[C@@H](N)CN1C(=O)[C@@H](N)C(C)C)[C@@H](C)CC)C(=O)N[C@@H](Cc1ccc(O)cc1)C(=O)N[C@@H]1C(=O)N[C@@H](CC(N)=O)C(=O)N[C@@H](CCCNC(=N)N)C(=O)N[C@@H](CCN)C(=O)N[C@@H]([C@@H](C)O)C(=O)N[C@H](CCN)C(=O)N[C@@H](CCCCN)C(=O)N[C@H](C(=O)N[C@@H](CO)C(=O)N[C@@H](CCCNC(=N)N)C(=O)N[C@@H](Cc2ccc(O)cc2)C(=O)O)CSSC1(C)C [Example 93, Val-Pro((4R)NH2)-Ile-Ile-Tyr-Pen-Asn-Arg-Dab-Thr-^DDab-Lys-Cys-Ser-Arg-Tyr] (HELM PEPTIDE1{V.[N[C@@H]1C[C@@H](C(=O)[*:2])N([*:1])C1].I.I.Y.[Pen].N.R.[Dab].T.[NCC[C@@H](N[*:1])C(=O)[*:2]].K.C.S.R.Y}$PEPTIDE1,PEPTIDE1,6:R3-13:R3$$$V2.0)",0.25 µg/mL,0.0625 µg/mL,0.25 µg/mL,<1%
"CC[C@H](C)[C@H](NC(=O)[C@@H](NC(=O)[C@@H]1C[C@@H](O)CN1C(=O)[C@@H](N)C(C)C)[C@@H](C)CC)C(=O)N[C@@H](Cc1ccc(O)cc1)C(=O)N[C@@H]1C(=O)N[C@@H](CC(N)=O)C(=O)N[C@@H](CCCNC(=N)N)C(=O)N[C@@H](CCN)C(=O)N[C@@H]([C@@H](C)O)C(=O)N[C@H](CCN)C(=O)N[C@@H](CCCCN)C(=O)N[C@H](C(=O)N[C@@H](CCN)C(=O)N[C@H](C(=O)N[C@@H](Cc2ccc(O)cc2)C(=O)O)[C@@H](C)O)CSSC1(C)C [Example 111, Val-Hyp-Ile-Ile-Tyr-Pen-Asn-Arg-Dab-Thr-^DDab-Lys-Cys-Dab-Thr-Tyr] (HELM PEPTIDE1{V.[Hyp].I.I.Y.[Pen].N.R.[Dab].T.[NCC[C@@H](N[*:1])C(=O)[*:2]].K.C.[Dab].T.Y}$PEPTIDE1,PEPTIDE1,6:R3-13:R3$$$V2.0)",0.25 µg/mL,0.125 µg/mL,0.5 µg/mL,<1%
